# Data published in ChEMBL document CHEMBL5038572, “Thermodynamic Dissection of Potency and Selectivity of Cytosolic Hsp90 Inhibitors” (J Med Chem, 2021).
# Activity calls are given as the source filed them. No cut-off for these calls is given here.
# What was measured:
# [1] = target: T1, Heat shock protein HSP 90-alpha (Homo sapiens, UniProt P07900); experiment: Inhibition of FITC-GDA binding to human HSP90-alpha incubated for 2 hrs followed by FITC-GDA addition and measured after 5 hrs by fluorescence polarization competitive binding assay
# [2] = target: Heat shock protein HSP 90-beta (Homo sapiens, UniProt P08238); experiment: Binding affinity to human HSP90-beta by fluorescence polarization competitive binding assay
# Sequence of Heat shock protein HSP 90-beta (P08238 whole entry): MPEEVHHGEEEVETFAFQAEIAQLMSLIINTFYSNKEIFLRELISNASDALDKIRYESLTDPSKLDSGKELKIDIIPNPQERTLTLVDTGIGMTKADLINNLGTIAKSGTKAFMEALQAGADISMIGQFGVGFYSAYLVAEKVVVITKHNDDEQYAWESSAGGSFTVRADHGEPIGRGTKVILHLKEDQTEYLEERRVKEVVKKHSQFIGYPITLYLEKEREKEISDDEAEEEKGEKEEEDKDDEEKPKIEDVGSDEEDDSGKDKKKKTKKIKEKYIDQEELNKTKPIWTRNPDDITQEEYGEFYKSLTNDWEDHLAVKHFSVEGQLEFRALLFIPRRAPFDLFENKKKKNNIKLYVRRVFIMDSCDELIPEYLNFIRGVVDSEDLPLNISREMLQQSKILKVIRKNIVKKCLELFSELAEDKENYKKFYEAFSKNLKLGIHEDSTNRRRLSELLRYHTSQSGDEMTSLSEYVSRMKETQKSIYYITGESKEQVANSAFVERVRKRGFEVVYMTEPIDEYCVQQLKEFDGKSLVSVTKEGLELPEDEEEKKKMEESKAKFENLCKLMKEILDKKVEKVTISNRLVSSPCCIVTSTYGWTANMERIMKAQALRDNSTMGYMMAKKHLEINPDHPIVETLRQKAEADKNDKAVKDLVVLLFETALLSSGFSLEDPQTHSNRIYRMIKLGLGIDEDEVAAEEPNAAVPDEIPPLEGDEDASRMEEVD
# Endoplasmin = Endoplasmin (Homo sapiens, UniProt P14625); experiment: Binding affinity to GRP94 (unknown origin) by fluorescence polarization competitive binding assay
# Sequence of Endoplasmin (P14625 whole entry): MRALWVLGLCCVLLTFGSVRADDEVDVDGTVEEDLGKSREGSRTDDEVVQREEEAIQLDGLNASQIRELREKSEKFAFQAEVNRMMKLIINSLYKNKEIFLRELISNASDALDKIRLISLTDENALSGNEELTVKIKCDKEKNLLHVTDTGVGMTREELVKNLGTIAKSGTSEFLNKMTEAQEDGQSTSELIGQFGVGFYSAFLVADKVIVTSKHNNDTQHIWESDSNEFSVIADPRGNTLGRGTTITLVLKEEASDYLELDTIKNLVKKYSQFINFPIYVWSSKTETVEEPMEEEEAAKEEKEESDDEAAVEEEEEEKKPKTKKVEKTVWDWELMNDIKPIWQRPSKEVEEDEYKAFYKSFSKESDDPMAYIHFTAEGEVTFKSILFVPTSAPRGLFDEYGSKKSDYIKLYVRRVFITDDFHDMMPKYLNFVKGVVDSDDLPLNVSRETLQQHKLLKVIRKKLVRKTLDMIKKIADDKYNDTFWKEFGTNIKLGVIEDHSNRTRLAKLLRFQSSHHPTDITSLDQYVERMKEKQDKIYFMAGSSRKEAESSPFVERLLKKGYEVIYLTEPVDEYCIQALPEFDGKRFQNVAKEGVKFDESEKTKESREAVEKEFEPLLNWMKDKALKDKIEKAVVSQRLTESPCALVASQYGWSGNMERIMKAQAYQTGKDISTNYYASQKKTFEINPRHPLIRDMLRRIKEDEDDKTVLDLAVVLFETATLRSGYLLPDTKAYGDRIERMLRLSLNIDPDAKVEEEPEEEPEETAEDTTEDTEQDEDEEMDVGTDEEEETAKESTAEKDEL
# [3] = target: T2, Heat shock protein 75 kDa, mitochondrial (Homo sapiens, UniProt Q12931); experiment: Binding affinity to TRAP1 (unknown origin) by fluorescence polarization competitive binding assay
# T2 sequence (Q12931 whole entry): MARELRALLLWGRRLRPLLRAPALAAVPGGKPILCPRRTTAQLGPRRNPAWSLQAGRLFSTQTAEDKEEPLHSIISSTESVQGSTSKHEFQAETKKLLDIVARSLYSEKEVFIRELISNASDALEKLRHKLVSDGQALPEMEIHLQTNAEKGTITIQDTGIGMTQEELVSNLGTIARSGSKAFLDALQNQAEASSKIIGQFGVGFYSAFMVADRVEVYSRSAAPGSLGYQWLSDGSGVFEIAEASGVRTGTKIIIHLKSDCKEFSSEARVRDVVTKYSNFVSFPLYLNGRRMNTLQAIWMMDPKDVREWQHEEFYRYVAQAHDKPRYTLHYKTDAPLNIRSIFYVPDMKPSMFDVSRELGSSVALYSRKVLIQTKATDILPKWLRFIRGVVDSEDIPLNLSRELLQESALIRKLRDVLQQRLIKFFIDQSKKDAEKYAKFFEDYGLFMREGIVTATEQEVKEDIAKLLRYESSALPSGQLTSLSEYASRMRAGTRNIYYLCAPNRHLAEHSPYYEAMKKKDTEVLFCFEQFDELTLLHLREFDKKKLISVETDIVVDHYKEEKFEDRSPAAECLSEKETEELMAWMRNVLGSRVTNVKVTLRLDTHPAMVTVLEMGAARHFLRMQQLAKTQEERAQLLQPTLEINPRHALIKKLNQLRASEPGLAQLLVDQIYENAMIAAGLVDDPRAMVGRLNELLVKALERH
# [4] = target: T1, Heat shock protein HSP 90-alpha; experiment: Binding affinity to human HSP90-alpha N-terminal domain assessed as change in enthalpy by measuring dissociation constant at 100 uM at 25 degC by isothermal titration calorimetry
# [5] = target: T1, Heat shock protein HSP 90-alpha; experiment: Binding affinity to human HSP90-alpha at protein to compound molar ratio of 1:1
# [6] = target: T1, Heat shock protein HSP 90-alpha; experiment: Binding affinity to human HSP90-alpha N-terminal domain assessed as gibbs free energy change at 100 uM by isothermal titration calorimetry
# [7] = target: T1, Heat shock protein HSP 90-alpha; experiment: Binding affinity to human HSP90-alpha N-terminal domain assessed as change in enthalpy at 100 uM by isothermal titration calorimetry
# [8] = target: T1, Heat shock protein HSP 90-alpha; experiment: Binding affinity to human HSP90-alpha N-terminal domain assessed as change in entropy at 100 uM by isothermal titration calorimetry
# [9] = target: T1, Heat shock protein HSP 90-alpha; experiment: Binding affinity to human HSP90-alpha assessed as change in heat capacity at 20 to 30 degC by isothermal titration calorimetry
# [10] = target: T1, Heat shock protein HSP 90-alpha; experiment: Binding affinity to human HSP90-alpha N-terminal domain assessed as dissociation constant at 100 uM at 25 degC by isothermal titration calorimetry
SMILES,IC50 [1],IC50 [2],IC50 (Endoplasmin),IC50 [3],DeltaCp [9],further results
CC(C)c1n[nH]c2nccc(-n3cnc(-c4cnn(C)c4)c3)c12,300 µM,218 µM,> 300 µM,> 300 µM,–,–
NC(=O)c1ccc(-c2nccc3c(-n4cnc(-c5ccccc5)c4)ccnc23)cc1NC1CCC(O)CC1 (stereo not given),–,–,–,–,–,Ki [1]: 13 µM; Ki [2]: 17 µM; Ki (Endoplasmin): > 300 µM; Ki [3]: > 300 µM
CC(C)c1n[nH]c2nccc(-n3cnc(-c4cccnc4)c3)c12,293 µM,89 µM,> 300 µM,> 300 µM,0.56 kcal/mol.K,Kd [4]: 2.7 µM; Activity [5]: Active; deltaG [6]: -31.8 kJ/mol; deltaH [7]: -23.8 kJ/mol; -TdeltaS [8]: -7.95 kJ/mol
CCc1cc(C(N)=O)ccc1-n1nc(C(C)C)c2c(-n3cnc(-c4cnn(C)c4)c3)ccnc21 [TAS-116],–,–,–,–,-0.29 kcal/mol.K,Kd [10]: 0.17 µM
